# Experimental data from patent US20260092054A1, “FUSED RING COMPOUND AND PHARMACEUTICAL CONTAINING SAME” (KAKEN PHARMACEUTICAL CO., LTD., priority 2022, published 2026).
# Test system: human STAT6
# Experiment: Human STAT6 dependent reporter activity (IL-4 stimulated STAT6 reporter assay using STAT6-HEK293 cells)
# Assay type: cell-based
# Conditions: Homo sapiens, compound 0.1 μmol/L; IL-4 stimulation, luciferase activity; read-out: Inhibition rate (%)
# Description: Test Example 2: Measurement of Human STAT6 Dependent Reporter Activity
# 1) Construction of Human STAT6-HEK293 Cells
# HEK 293 cells maintenance cultured by [Penicillin-Streptomycin (Thermo Fisher Scientific) and FBS, 1 vol % and 10 vol % respectively added to DMEM high glucose (Thermo Fisher Scientific)](manufactured by ATCC) were collected, and suspended in 10 mL of 0.5% BSA/PBS. 1×10^6 cells were collected, the supernatant was removed by centrifuging, and the cells were suspended in 100 μL of Nucleofector solution V (manufactured by Lonza K.K.). 2 μg of STAT6 vector [plasmid DNAs incorporating human STAT6 sequences in pcDNA3.1 (Invitrogen)] was added, and the STAT6 vector was introduced into the HEK293 cells using the program Q-001 initially registered in the Nucleofector®2b. A cell line (STAT6-HEK293 cells) consistently expressing STAT6 was acquired by selecting resistant cells in a medium containing Geneticin® (manufactured by Thermo Fisher Scientific). 2) STAT6 reporter assay using STAT6-HEK293 cells 3×10^6 STAT6-HEK293 cells maintained in assay medium [culture medium supplemented with 1 vol % Geneticin®] were harvested and seeded in a 10 cm dish. 3 μg of a STAT6 reporter vector [plasmid in which a sequence containing a STAT6 binding sequence and a C/EBP binding sequence in tandem was incorporated into pGL4.27 (manufactured by Promega Corporation)] and 9 μL of FuGENE® HD transfection reagent (manufactured by Promega Corporation) were added to 500 μL of Opti-MEM® (manufactured by Thermo Fisher Scientific) to prepare transfection solutions. The transfection solution was vortexed and left to stand for about 5 minutes, then added dropwise to the STAT6-HEK293 cells, which were then cultured overnight in a C02 incubator to produce STAT6 reporter cells.
# The prepared STAT6 reporter cells were seeded on B&W isoplate-96 TC (PerkinElmer Japan Co., Ltd.) (3×10^4 cells/50 μL/well) and cultured overnight in a C02 incubator (37° C., 5% C02). 50 μL of assay medium was added to each well instead of the STAT6 reporter cells. The compound addition solution was prepared by diluting the DMSO solution of the example compound 250-fold using the assay medium. 20 μL of compound addition solution or 0.4 vol % DMSO-containing assay medium was added to the plate, and the plate was then cultured in a CO2 incubator for 1 hour. 10 μL of 80 ng/mL human IL-4 solution (Peprotech) or assay medium was added to each well, and the cells were cultured in a CO2 incubator for 6 hours.
# STAT6 reporter activity was measured using the Bright-Glo® Luciferase Assay System (Promega). 100 μL of Bright-Glo® reagent was added to each well, and luciferase activity was measured using Infinite® F500. The inhibition rate of each Example compound was calculated by the following formula using the luciferase activity value (G) when no Example compound was added and stimulation with IL-4 was performed, the luciferase activity value (H) when no Example compound was added and stimulation with IL-4 was not performed, and the luciferase activity value (I) when each Example compound was treated and stimulation with IL-4 was performed.
# Note that the viable cell rate under each condition was 70% or more, and it was determined that the luciferase activity inhibitory activity of each example compound was appropriately evaluated.
row,Structure (SMILES),inhibition at 0.1 µM [%]
1,CCn1c(-c2ccc3c(c2)CCOC3C(N)=O)cc2ccnc(C(=O)Nc3ccc(F)c(C(N)=O)c3)c21 (stereo not drawn) [Ex. 28],43
2,CCn1c(-c2ccc(-c3ncon3)cc2)nc2cc(Br)cc(C(=O)Nc3cccc(C(N)=O)c3)c21 [Ex. 7],1

# Same assay, conditions: Homo sapiens, compound 1 μmol/L; IL-4 stimulation, luciferase activity; read-out: Inhibition rate (%)
row,Structure (SMILES),inhibition at 1 µM [%]
1,CCn1c(-c2ccc3c(c2)CCOC3C(N)=O)cc2ccnc(C(=O)Nc3ccc(F)c(C(N)=O)c3)c21 (stereo not drawn) [Ex. 28],93
2,CCn1c(-c2ccc(-c3ncon3)cc2)nc2cc(Br)cc(C(=O)Nc3cccc(C(N)=O)c3)c21 [Ex. 7],56

# Target: T1, human STAT6/pIL-4Rα (Homo sapiens, UniProt P42226)
# T1 construct: histidine tag
# T1 sequence (P42226 123-658): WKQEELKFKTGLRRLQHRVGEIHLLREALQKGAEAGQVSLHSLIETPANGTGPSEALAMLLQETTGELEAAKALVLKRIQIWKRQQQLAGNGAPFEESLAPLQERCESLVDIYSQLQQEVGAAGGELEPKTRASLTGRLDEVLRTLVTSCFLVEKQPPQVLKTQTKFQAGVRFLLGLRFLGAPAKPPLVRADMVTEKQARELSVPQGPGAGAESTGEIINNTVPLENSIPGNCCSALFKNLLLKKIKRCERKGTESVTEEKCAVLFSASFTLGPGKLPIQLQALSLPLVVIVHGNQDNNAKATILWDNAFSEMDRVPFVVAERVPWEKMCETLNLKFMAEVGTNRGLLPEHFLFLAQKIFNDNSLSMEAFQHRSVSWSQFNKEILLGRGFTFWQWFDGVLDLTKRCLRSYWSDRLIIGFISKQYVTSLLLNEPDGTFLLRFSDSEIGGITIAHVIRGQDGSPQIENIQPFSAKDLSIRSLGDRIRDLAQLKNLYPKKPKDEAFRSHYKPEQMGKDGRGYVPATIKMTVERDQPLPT
# Experiment: Binding inhibitory activity between human STAT6/pIL-4Rα by fluorescence polarization method
# Conditions: rhSTAT6 (123-658) / FAM-pIL-4Rα peptide
# Description: Test Example 1: Measurement of Binding Inhibitory Activity Between Human STAT6/pIL-p 4Rα by Fluorescence Polarization Method
# 1) Construction of Histidine Tag-Fused Recombinant Human STAT6 (123 to 658 Region)
# A histidine tag-fused recombinant human STAT6 (hereinafter referred to as rhSTAT6) expression vector [plasmid DNA in which a nucleic acid sequence containing human STAT6 (123-658 region) was inserted into a pET28a(+) vector (Novagen)] was inserted into E. coli, and the cells were cultured overnight under culturing conditions at 17° C. with IPTG treatment. After disrupting E. coli with a high-pressure homogenizer (EmulsiFlex-C3, manufactured by AVESTIN, Inc.), affinity purification using Ni-NTA agarose (manufactured by Qiagen), cation exchange chromatography using HiTrap® CM-FF (manufactured by GE healthcare), and gel filtration chromatography using Superdex® 200 10/300GL (manufactured by GE healthcare) were performed to obtain rhSTAT6.
# 2) Measurement of Binding Inhibitory Activity Between Human STAT6/pIL-4Rα by Fluorescence Polarization Method
# A DMSO solution of the example compound was diluted with an assay buffer [for example, a buffer containing 50 mmol/L NaCl, 10 mmol/L HEPES (pH 7.0), 1 mmol/L DTT, 1 mmol/L EDTA, and 0.01 vol % NP-40, and the like] to prepare a compound-added solution. The DMSO concentration in the compound addition solution was adjusted to 1 or 2 vol %. 10 μL of the compound addition solution and an assay buffer containing 1 or 2 vol % DMSO were added to each well of a 384-well plate. 5 μL of an assay buffer solution containing rhSTAT6 (rhSTAT6 concentration: for example, 1 μmol/L) or an assay buffer was added to each well of a 384-well plate. After leaving the plate at room temperature for 30 minutes in the dark, 5 μL of an assay buffer solution (FAM-pIL-4Rp concentration: for example, 80 nmol/L) containing FAM-labeled phosphorylated IL-4Rα peptide (sequence: FAM-Ala-pTyr-Lys-Pro-Phe-Gln-Asp-Leu-IIe-NH2) (hereinafter, FAM-pIL-4Rp) or an assay buffer containing 2 vol % DMSO was added to each well of the 384-well plate. The mixture was left to stand at room temperature for 30 minutes in the dark, and then centrifuged (200 g, 1 minute, room temperature). Fluorescence polarization values were measured using Infinite (registered trademark) F500 (manufactured by Tecan Japan Co., Ltd.) (Excitation: 485 nm, Emission: 535 nm). The inhibition rate of each Example compound was calculated according to the following formula using the fluorescence polarization value (A) when rhSTAT6 and FAM-pIL-4Rp were added without adding the Example compound, the fluorescence polarization value (B) when FAM-pIL-4Rp was added without adding the Example compound and rhSTAT6, and the fluorescence polarization value (C) when each Example compound, rhSTAT6, and FAM-pIL-4Rp were added.
# In the evaluation of each example compound, the 50% inhibitory concentration (IC50) of each example compound was calculated from a linear function equation of a straight line connecting two points sandwiching 50%.
row,Structure (SMILES),IC50 [nM]
1,"CC1CC(C)N(c2ccc(-c3cc4ccnc(C(=O)Nc5ccc(F)c(C(N)=O)c5)c4n3CC3(C#N)CC3)cc2)C1=O (single isomer, unassigned) [Ex. 222]",3100
2,COCCn1c(-c2ccc(N(C)C(C)=O)cc2)nc2cc(CO)cc(C(=O)Nc3cccc(C(N)=O)c3)c21 [Ex. 213],3470
3,CCn1c(-c2ccc(-n3ccccc3=O)cc2)nc2cc(C(F)(F)F)cc(C(=O)Nc3cccc(C(N)=O)c3C)c21 [Ex. 10],3260
4,CCn1c(-c2ccc(-n3c(C)nn(C)c3=O)cc2)cc2cc(C(F)(F)F)cc(C(=O)Nc3ccc4c(c3)NC(=O)C4)c21 [Ex. 101],4060
5,COCCn1c(-c2ccc(N(C)C(C)=O)cc2)nc2cc(CCC(C)(C)OC)cc(C(=O)Nc3cccc(C(N)=O)c3)c21 [Ex. 205],8440
6,COCCn1c(-c2ccc(N(C)C(C)=O)cc2)nc2cc(C3CC3)cc(C(=O)Nc3cccc(C(N)=O)c3)c21 [Ex. 208],2080
7,C/C=C/c1cc(C(=O)Nc2cccc(C(N)=O)c2)c2c(c1)nc(-c1ccc(N(C)C(C)=O)cc1)n2CCOC [Ex. 203],7060
8,COCCn1c(-c2ccc(-n3c(C)nn(C)c3=O)cc2)cc2cc(C(F)(F)F)cc(C(=O)Nc3cncs3)c21 [Ex. 86],1780
9,COCCn1c(-c2ccc(-n3c(C)nn(C)c3=O)cc2)cc2cc(C(F)(F)F)cc(C(=O)Nc3cc[nH]n3)c21 [Ex. 81],2270
10,C#Cc1cc(C(=O)Nc2cccc(C(N)=O)c2)c2c(c1)nc(-c1ccc(N(C)C(C)=O)cc1)n2CCOC [Ex. 206],3620
11,COCCn1c(-c2ccc(N(C)C(C)=O)cc2)nc2cc(COC)cc(C(=O)Nc3cccc(C(N)=O)c3)c21 [Ex. 215],2940
12,Cc1nn(C)c(=O)n1-c1ccc(-c2cc3cc(C(F)(F)F)cc(C(=O)Nc4ccc(F)c(C(N)=O)c4)c3n2C)cc1 [Ex. 55],2570
13,CCn1c(-c2ccc(-n3cnn(C)c3=O)cn2)cc2cc(C(F)(F)F)cc(C(=O)Nc3ccc(F)c(C(N)=O)c3)c21 [Ex. 64],2620
14,COCCn1c(-c2ccc(-n3c(C)nn(C)c3=O)cc2)cc2cc(C(F)(F)F)cc(C(=O)Nc3ccc(F)cc3)c21 [Ex. 53],3970
15,"CCn1c(-c2ccc(N3C(=O)C(C)CC3C)cc2)nc2cc(C(F)(F)F)cc(C(=O)Nc3cccc(C(N)=O)c3F)c21 (single isomer, unassigned) [Ex. 220]",9600
16,COCCn1c(-c2ccc(N(C)C(C)=O)cc2)nc2cc(CC#N)cc(C(=O)Nc3cccc(C(N)=O)c3)c21 [Ex. 214],3980
17,COCCn1c(-c2ccc(N(C)C(C)=O)cc2)nc2cc(C3CCCC3)cc(C(=O)Nc3cccc(C(N)=O)c3)c21 [Ex. 212],9030
18,"CC1CC(C)N(c2ccc(-c3cc4ccnc(C(=O)Nc5cccc(C(N)=O)c5F)c4n3CC3(C#N)CC3)cc2)C1=O (single isomer, unassigned) [Ex. 224]",1590
19,COCCn1c(-c2ccc(-n3c(C)nn(C)c3=O)cc2)cc2cc(C(F)(F)F)cc(C(=O)Nc3cccc(S(N)(=O)=O)c3)c21 [Ex. 63],2530

# The next lines start with the values.
row,IC50 [nM],Structure (SMILES)
1,1180,CCn1c(-c2ccc(N3CCCCC3=O)cc2)cc2cc(C(F)(F)F)cc(C(=O)Nc3ccc(F)c(C(N)=O)c3)c21 [Ex. 71]
2,1140,CCn1c(-c2ccc(-n3c(C)nn(C)c3=O)cc2)cc2ccnc(C(=O)Nc3cccc(C(N)=O)c3)c21 [Ex. 82]
3,1000,COCCn1c(-c2ccc(-n3c(C)nn(C)c3=O)cc2)cc2cc(C(F)(F)F)cc(C(=O)Nc3cccnn3)c21 [Ex. 87]
4,780,CCn1c(-c2ccc(-n3c(C)nn(C)c3=O)cc2)cc2cc(C(F)(F)F)cc(C(=O)Nc3cc[nH]n3)c21 [Ex. 105]
5,570,CCn1c(-c2ccc(-n3c(C)nn(C)c3=O)nn2)cc2cc(C(F)(F)F)cc(C(=O)Nc3ccc(F)c(C(N)=O)c3)c21 [Ex. 128]
6,320,COCCn1c(-c2ccc(-n3c(C)nn(C)c3=O)cc2)cc2cc(C(F)(F)F)cc(C(=O)Nc3cccc(C(=O)Nc4ccn(C)n4)c3)c21 [Ex. 117]
7,320,CCn1c(-c2ccc(-n3c(C)nn(C)c3=O)cc2)cc2ccnc(C(=O)Nc3cccc(C(=O)O)c3)c21 [Ex. 164]
8,300,COCCn1c(-c2ccc(-n3c(C)nn(C)c3=O)cc2)cc2cc(C(F)(F)F)cc(C(=O)Nc3cccc(C(=O)O)c3)c21 [Ex. 162]
9,270,COCCn1c(-c2ccc(-n3c(C)nn(C)c3=O)cc2)cc2cc(C(F)(F)F)cc(C(=O)Nc3cccc(C(=O)O)n3)c21 [Ex. 184]
10,270,"C/C(=C\C(=O)N[C@H](C(=O)N1CCC[C@H]1C(=O)N(C)c1ccccc1)C(C)(C)C)c1ccc(OP(=O)(O)O)cc1 [PM-301H, reference compound]"
